Entries after “also recorded” stand apart in the source; their conditions may differ.
Experiments:
[1] = tested on: Flt3 and Fes in primary AML patient samples; set-up: method as in PMID 20111072; conditions: cited from earlier work
[2] = tested on: T1, Fes in MV4-11 and MOLM-14 cells; assay: Immunoprecipitation/immunoblot of Fes activation loop phosphorylation (pY713) in AML cells; type: cell-based, human; conditions: compound at in vitro IC90 for Fes, 16 h (tandutinib: IC90 for Flt3-ITD, 6 h)
T1 construct: endogenous in cells; host or cells: MV4-11 and MOLM-14
Protocol: (§1) AML cells (2.5 x 10^6 in 5 mL) were cultured in the presence of kinase inhibitors or DMSO alone for 6 to 16 hours prior to lysis by sonication in RIPA buffer (50 mM Tris-HCl, pH 7.4, 150 mM NaCl, 1 mM EDTA, 1% Triton X-100, 0.1% SDS, 1% sodium deoxycholate) supplemented with 1 mM sodium orthovanadate, 1 mM sodium fluoride, 5 units/ml Benzonase (Novagen), and SigmaFAST EDTA-free protease inhibitor cocktail (Sigma). Flt3 and Fes were immunoprecipitated from 1 mg of cell lysate with 2 μg of antibody and 25 μL of protein G-Sepharose beads (Life Technologies) overnight at 4°C. Immunoprecipitates were washed three times by resuspension in 1.0 ml of RIPA buffer. Immunoprecipitated proteins were separated by SDS-PAGE, transferred to PVDF membranes and probed with the indicated antibodies followed by alkaline phosphatase-linked secondary antibodies. CDP-Star Western Blot Chemiluminescence Reagent (Perkin-Elmer) was used for detection.
(§2) Fes and Flt3 kinase proteins were then immunoprecipitated from cell lysates, followed by immunoblotting with antibodies to phosphotyrosine (pTyr), the Fes activation loop phosphotyrosine (pY713), as well as the Flt3 and Fes proteins.

[3] = target: T2, recombinant full-length Fes (Homo sapiens, UniProt P07332); assay: In vitro kinase assay (Z'-LYTE); type: biochemical; conditions: highest concentration tested 100 μM
T2 construct: in vitro kinase assays using recombinant purified full-length Fes; made in house; host or cells: E. coli
T2 sequence (P07332 whole entry): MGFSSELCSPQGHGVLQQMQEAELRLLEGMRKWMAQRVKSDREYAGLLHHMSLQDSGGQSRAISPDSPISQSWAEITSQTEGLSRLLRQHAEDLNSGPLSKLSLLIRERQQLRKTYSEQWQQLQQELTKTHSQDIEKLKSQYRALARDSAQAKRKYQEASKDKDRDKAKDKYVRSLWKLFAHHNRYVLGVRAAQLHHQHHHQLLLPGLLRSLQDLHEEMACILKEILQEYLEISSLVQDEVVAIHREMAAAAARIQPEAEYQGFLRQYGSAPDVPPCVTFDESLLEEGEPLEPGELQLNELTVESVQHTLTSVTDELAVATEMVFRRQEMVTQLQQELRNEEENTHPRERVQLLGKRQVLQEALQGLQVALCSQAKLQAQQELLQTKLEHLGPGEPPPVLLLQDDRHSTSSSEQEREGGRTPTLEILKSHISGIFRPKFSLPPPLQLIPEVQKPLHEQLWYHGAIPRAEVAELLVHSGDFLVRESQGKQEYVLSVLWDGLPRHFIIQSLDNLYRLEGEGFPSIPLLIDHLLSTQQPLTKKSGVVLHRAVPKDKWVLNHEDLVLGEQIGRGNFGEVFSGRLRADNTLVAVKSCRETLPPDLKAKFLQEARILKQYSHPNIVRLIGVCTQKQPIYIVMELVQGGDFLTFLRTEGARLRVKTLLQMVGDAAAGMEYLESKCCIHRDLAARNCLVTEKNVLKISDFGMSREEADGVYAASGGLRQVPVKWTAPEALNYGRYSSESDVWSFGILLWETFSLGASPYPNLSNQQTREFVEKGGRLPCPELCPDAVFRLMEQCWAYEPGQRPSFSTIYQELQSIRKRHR
Protocol: Recombinant protein kinase assays were performed using the FRET-based Z’-LYTE Kinase Assay according to the manufacturer’s instructions (Thermo Fisher Scientific). […] The Tyr-2 peptide was used as substrate for all recombinant kinases. Kinases were preincubated with inhibitors for 30 minutes, followed by addition of ATP and peptide substrate for 1 hour. Reactions were quenched by addition of development reagent, followed by incubation for an additional hour prior to fluorescence measurements on a SpectraMax M5 microplate reader. IC50 values were calculated by non-linear regression analysis of the resulting concentration-response curves using GraphPad PRISM.

MV4-11 cells = assay: Growth inhibition, CellTiter-Blue viability, 72 h; type: cell-based; conditions: Homo sapiens, MV4-11 (Flt3-ITD+), read-out: Growth Suppression in AML Cell Lines (IC50, nM) MV4-11
Protocol: (§3) Cells were seeded at a density of 100,000 cells per 1.0 ml in 48-well culture plates. Compounds were added to various concentrations while holding the DMSO concentration constant at 0.1%. Cell viability was assessed 72 hours later using the CellTiter-Blue Cell Viability assay (Promega) according to the manufacturer’s protocol and a SpectraMax Multi-Mode Microplate Reader (Molecular Devices). IC50 values were determined by non-linear regression analysis of concentration-response curves using the GraphPad PRISM software package (version 6.0). Apoptosis was determined using the same cell culture conditions and the Apo-ONE Homogeneous Caspase-3/7 Assay (Promega) and the manufacturer’s protocol.
(§4) Fig 2 Fes tyrosine kinase inhibitors induce growth arrest in Flt3-ITD^+ AML cell lines. A) The Flt3-ITD^+ cell lines MV4-11, MOLM-13, and MOLM-14, along with THP-1 (wild-type FLT3) were incubated with each of the kinase inhibitors shown over a range of concentrations, and cell viability was measured 72 h later using the CellTiter-Blue Assay (see Materials and methods). Raw fluorescence data were corrected for background and then normalized to cultures grown in the presence of the DMSO carrier solvent. Each assay condition was performed in triplicate, and results are presented as the mean of the normalized values ± the SD. The resulting dose-response curves were fitted by non-linear regression analysis, and the resulting IC50 values are shown in Table 1.

MOLM-14 cells = assay: Growth inhibition, CellTiter-Blue viability, 72 h; type: cell-based; conditions: Homo sapiens, MOLM-14 (Flt3-ITD+), read-out: Growth Suppression in AML Cell Lines (IC50, nM) MOLM-14
Protocol: as §3, §4

THP-1 cells [4] = assay: Growth inhibition, CellTiter-Blue viability, 72 h; type: cell-based; conditions: Homo sapiens, THP-1 (wild-type Flt3), read-out: Growth Suppression in AML Cell Lines (IC50, nM) THP-1
Protocol: as §3, §4

MOLM-13 cells = assay: Growth inhibition, CellTiter-Blue viability, 72 h; type: cell-based; conditions: Homo sapiens, MOLM-13 (Flt3-ITD+), read-out: Growth Suppression in AML Cell Lines (IC50, nM) MOLM-13
Protocol: as §3, §4

Stat5 activation = tested on: Stat5 activation; set-up: method as in PMID 22411868; conditions: MV4-11 cells and AML patient samples; cited from earlier work
[5] = tested on: Flt3-ITD+ AML cell lines (MV4-11, MOLM-13, MOLM-14); assay: Apoptosis, Apo-ONE Caspase 3/7 assay; type: cell-based, human; conditions: 1.0 μM, 72 h
Protocol: as §3
Cell viability was measured in parallel using the CellTiter-Blue assay, and the resulting data are presented as the ratio of Caspase activity to cell viability as per the manufacturer’s protocol. All assays were performed in triplicate, and data are presented as the mean ratios ± SD. Asterisks indicate statistical significance between each treatment group vs. the corresponding DMSO control group with p < 0.05 (Student’s t-test).

THP-1 cells [6] = assay: Apoptosis, Apo-ONE Caspase 3/7 assay; type: cell-based, human; conditions: 1.0 μM, 72 h
Protocol: as §3
Fig 3 Fes tyrosine kinase inhibitors induce apoptosis in Flt3-ITD^+ AML cell lines. The Flt3-ITD^+ cell lines MV4-11, MOLM-13, and MOLM-14, along with THP-1 (wild-type FLT3), were incubated with each of kinase inhibitors shown at a final concentration of 1 μM and apoptosis was measured 72 h later using the Apo-ONE Caspase 3/7 Assay (Promega). Cell viability was measured in parallel using the CellTiter-Blue assay, and the resulting data are presented as the ratio of Caspase activity to cell viability as per the manufacturer’s protocol. All assays were performed in triplicate, and data are presented as the mean ratios ± SD. […]

[7] = tested on: TF-1 cells expressing Flt3-WT; assay: Inhibitor sensitivity of TF-1 cell populations, CellTiter-Blue, 72 h; type: cell-based; conditions: Homo sapiens, TF-1, 72 h, read-out: Inhibitor sensitivity of TF-1 Cell Populations (IC50, nM) Flt3-WT
Protocol: as §3
(§5) For each retroviral transduction, TF-1 cells (1 x 10^6) were suspended in 5 mL of undiluted viral supernatant and plated in one well of a 6-well tissue culture dish. Polybrene (Sigma) was added to a final concentration of 4 μg/mL and the TF-1 cells were centrifuged at 1000 x g for 3 hours to enhance retroviral mediated gene transfer. After centrifugation, the virus was removed and replaced with fresh medium.
(§6) Raw fluorescence data were corrected for background and then normalized to cultures grown in the presence of the DMSO carrier solvent. Each condition was performed in triplicate, and results are presented as the mean of the normalized values ± the SD. The resulting dose-response curves were fitted by non-linear regression analysis for estimation of the IC50 values (see Table 2). […] Fes and Flt3 kinase proteins were then immunoprecipitated from cell lysates followed by immunoblotting with antibodies to phosphotyrosine (pTyr), the Fes activation loop phosphotyrosine (pY713), as well as the Flt3 and Fes proteins.

[8] = tested on: Flt3-ITD in TF-1/Flt3-ITD cells; assay: Immunoprecipitation/immunoblot of Flt3 phosphotyrosine content in TF-1/Flt3-ITD cells; type: cell-based, human; conditions: compound at in vitro IC90 for Fes, 16 h (tandutinib: IC90 for Flt3-ITD, 6 h)
Protocol: as §1, §6

[9] = tested on: Flt3-D835Y in TF-1/Flt3-D835Y cells; assay: Immunoprecipitation/immunoblot of Flt3-D835Y phosphotyrosine content in TF-1/Flt3-D835Y cells; type: cell-based, human; conditions: immunoblot, compound at in vitro IC90
Protocol: as §1, §6

[10] = tested on: Fes in TF-1/Flt3-ITD cells; assay: Immunoprecipitation/immunoblot of Fes pY713 in TF-1/Flt3-ITD cells; type: cell-based, human; conditions: compound at in vitro IC90 for Fes, 16 h (tandutinib: IC90 for Flt3-ITD, 6 h)
Protocol: as §1, §6

TF-1/Flt3-ITD cells = assay: Inhibitor sensitivity of TF-1 cell populations, CellTiter-Blue, 72 h; type: cell-based, human; conditions: Homo sapiens, TF-1, 72 h, read-out: Inhibitor sensitivity of TF-1 Cell Populations (IC50, nM) Flt3-ITD
Protocol: as §3, §5, §6

TF-1/Flt3-D835Y cells = assay: as above; type: cell-based, human; conditions: Homo sapiens, TF-1, 72 h, read-out: Inhibitor sensitivity of TF-1 Cell Populations (IC50, nM) Flt3-D835Y
Protocol: as §3, §5, §6

[11] = tested on: TF-1 cells transduced with an empty retroviral vector (Control); assay: as above; type: cell-based, human
Protocol: as §3, §5, §6

[12] = tested on: Flt3-ITD-transformed Ba/F3 cells; conditions: cited from earlier work
[13] = tested on: Flt3-ITD in MV4-11 and MOLM-14 cells; assay: Immunoprecipitation/immunoblot of Flt3 phosphotyrosine content in AML cells; type: cell-based, human; conditions: compound at in vitro IC90 for Fes, 16 h (tandutinib: IC90 for Flt3-ITD, 6 h)
Protocol: as §1, §2

Flt3-ITD in Ba/F3 cells = conditions: 100 nM; cited from earlier work
[14] = tested on: Flt3-ITD+ AML cell lines (MV4-11, MOLM-13, MOLM-14); assay: Growth inhibition across Flt3-ITD+ AML cell lines; type: cell-based; conditions: Homo sapiens, 72 h, read-out: IC50 values for growth inhibition, range over the Flt3-ITD+ AML cell lines
Protocol: as §3
Raw fluorescence data were corrected for background and then normalized to cultures grown in the presence of the DMSO carrier solvent. Each assay condition was performed in triplicate, and results are presented as the mean of the normalized values ± the SD.

In the case of `Cc1cc(C)c(/C=C2\C(=O)Nc3ccccc32)[nH]1` [SU5416], the “Effect on Flt3 and Fes activation in primary AML patient samples” value [1] is given as “reduced both Flt3 and Fes activation”.

With `COc1cc2c(N3CCN(C(=O)Nc4ccc(OC(C)C)cc4)CC3)ncnc2cc1OCCCN1CCCCC1` [Tandutinib, reference compound] the “Inhibition of Fes activation loop phosphorylation in MV4-11 and MOLM-14 cells” value [2] was “little effect”, the “Effect on Fes kinase activity in vitro (words)” value [3] was “does not inhibit Fes in vitro or in cells” and the “Effect on Fes kinase activity in vitro (words)” value ([3]; listed as tandutinib) was “no effect”. The IC50 (MV4-11 cells) was 502 nM, the IC50 (MOLM-14 cells) was 232 nM and the IC50 (THP-1 cells [4]) was > 3000 nM. The IC50 (MOLM-13 cells) was 532 nM.

For `Cc1nc(Nc2ncc(C(=O)Nc3c(C)cccc3Cl)s2)cc(N2CCN(CCO)CC2)n1` [dasatinib], the “Effect on Stat5 activation” value (Stat5 activation) is given as “reduced Stat5 activation”.

With `CN[C@@H]1C[C@H]2O[C@@](C)([C@@H]1OC)n1c3ccccc3c3c4c(c5c6ccccc6n2c5c31)C(=O)NC4` [staurosporine, reference compound] the “Apoptosis (Caspase 3/7 activity) in Flt3-ITD+ AML cell lines” value [5] was “strong apoptotic response” and the “Apoptosis (Caspase 3/7 activity) in THP-1 cells” value (THP-1 cells [6]) was “strong apoptotic response”.

For `COc1cc(N2CCC(N3CCN(C)CC3)CC2)ccc1Nc1ncc(Cl)c(Nc2ccccc2S(=O)(=O)C(C)C)n1` [TAE-684, reference compound], the “Apoptosis (Caspase 3/7 activity) in Flt3-ITD+ AML cell lines” value [5] was “equal to or greater than that observed with tandutinib”, the “Inhibition of Fes activation loop phosphorylation in MV4-11 and MOLM-14 cells” value [2] was “did inhibit Fes” and the IC50 [7] was > 1000 nM. The “Inhibition of Flt3-ITD phosphotyrosine content in TF-1/Flt3-ITD cells” value [8] was “no effect on Flt3-ITD; also recorded: did not affect Flt3-ITD phosphotyrosine content”, the “Inhibition of Flt3-D835Y phosphotyrosine content in TF-1/Flt3-D835Y cells” value [9] was “complete inhibition; also recorded: completely suppressed” and the IC50 (MV4-11 cells) was 123 nM. The IC50 (MOLM-14 cells) was 74 nM, the IC50 (THP-1 cells [4]) was > 3000 nM and the IC50 (MOLM-13 cells) was 166 nM. The “Inhibition of Fes activation loop phosphorylation in TF-1/Flt3-ITD cells” value [10] was “inhibited Fes”, the IC50 (TF-1/Flt3-ITD cells) was 82 nM and the IC50 (TF-1/Flt3-D835Y cells) was 83 nM. The IC50 ([11]; Homo sapiens, TF-1, empty vector control, 72 h) was > 1000 nM, the “Nonspecific cytotoxicity in TF-1 cells expressing wild-type Flt3 or vector control cells” value ([11]; TF-1/Flt3-WT and vector control cells) was “some nonspecific cytotoxicity in the low micromolar range” and the “Effect on Flt3-ITD-transformed Ba/F3 cell proliferation” value [12] was “no effect”. For the same compound, the “Inhibition of Flt3-ITD phosphotyrosine content in MV4-11 and MOLM-14 cells” value [13] was “no effect”, the “Effect on Flt3-ITD phosphotyrosine content in Ba/F3 cells expressing Flt3-ITD” value (Flt3-ITD in Ba/F3 cells) was “no effect” and the IC50 [14] was 19 to 166 nM.
